From paper PMC3249654 (The Open Virology Journal, 2011)
Where “and” joins values, the source holds several entries; their conditions need not be identical. Equal entries are not always repeated.

Columns and labels:
[1] = system: influenza A(H1N1) viruses; conditions: cited from earlier work
[2] = system: NA enzyme activity of influenza A(H1N1) viruses; assay type: biochemical, influenza A(H1N1) virus; conditions: read-out: IC50-values of outliers with reduced zanamivir susceptibility

SMILES	average prevalence of ORV in Europe [1] [%]	IC50 [2]
CCOC(=O)C1=C[C@@H](OC(CC)CC)[C@H](NC(C)=O)[C@@H](N)C1 [oseltamivir]	20.1	
CC(=O)N[C@H]1[C@H]([C@H](O)[C@H](O)CO)OC(C(=O)O)=C[C@@H]1N=C(N)N [zanamivir]		3.1 nM and 3.4 nM and 5.3 nM
